Read-outs that look alike come from different tables or passages of the source.
What was measured:
EphB1-EphrinB2 = target: T1, EphB1-EphrinB2 (Rattus norvegicus, UniProt P09759); assay: shortened association (80 sec) Octet, immobilized rat EphB1-Fc binding to 100 nM mEB2-His; set-up: species or system mouse EphrinB2; settings: for Kd: 1:1 fit, read-out: KD of EphB1-EB2; for increase in rate of dissociation (Kdis) / lower affinity of EphB1-EB2 / tetramer accumulation slope: role: inhibitor
T1 construct: rat EphB1-Fc residues 18-538; mouse EB2-His residues 18-232; purchased R&D Systems (EphB1-Fc); Sino Biologicals (EB2-His)
T1 sequence (P09759 18-538): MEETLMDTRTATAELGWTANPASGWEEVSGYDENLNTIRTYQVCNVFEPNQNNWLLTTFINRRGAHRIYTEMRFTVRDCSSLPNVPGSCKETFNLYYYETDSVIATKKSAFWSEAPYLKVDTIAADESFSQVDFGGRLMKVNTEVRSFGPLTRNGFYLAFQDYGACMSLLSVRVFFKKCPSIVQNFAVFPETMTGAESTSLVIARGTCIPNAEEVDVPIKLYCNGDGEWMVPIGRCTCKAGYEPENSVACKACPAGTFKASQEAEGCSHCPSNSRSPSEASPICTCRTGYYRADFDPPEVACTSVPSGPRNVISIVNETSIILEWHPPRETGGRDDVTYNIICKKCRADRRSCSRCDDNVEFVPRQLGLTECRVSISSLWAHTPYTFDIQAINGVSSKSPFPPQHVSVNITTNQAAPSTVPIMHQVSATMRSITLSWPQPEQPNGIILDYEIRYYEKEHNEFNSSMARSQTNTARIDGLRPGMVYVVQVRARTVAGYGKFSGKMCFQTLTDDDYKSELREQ
Description: In the above disclosed Octet interaction studies using human proteins the association and dissociation times were doubled to 800 and 1,000 sec, respectively, resulting in a greater accumulation of the super-stable surmountable and extra-super-stable unsurmountable forms of the Eph-Ephrin tetramers. To better assess early binding activities in the absence of A20, biophysical studies were conducted in which the association times were shortened to 80, 40, 20, 15, 10, and 5 sec, followed by a standard 500 sec dissociation, and where biosensor immobilized rEphB1-Fc ectodomain was exposed to 100 nM soluble mEB2-His. Focusing first on the run with 80 sec association step and for illustrative purpose (FIG. 23), the biosensor response indicates the expected rapid formation of EphB1-EB2 dimers with extremely high 87° slope for the first 10-15 sec of the association, which then quickly bends again as expected this time to a −60° slope as tetramers begin to accumulate. […] The dissociation response then quickly bent to level off and plateau at a signal much higher than baseline to represent the species of stable EphB1-EB2 tetramers that remained complexed throughout the remaining dissociation step.
To assess how A20 chemicals alter early binding activities, 80 sec Octet runs were then conducted using 0, 10, and 100 μM concentrations of the A20 salt compound (FIG. 25A 25B). In the absence of A20, the association response of immobilized EphB1 binding to soluble EB2 is typical to that shown in FIG. 24 and indicates rapid early formation of dimers with very high 87° slope that quickly bends to the tetramerization accumulation slope of −60°, and then once in the dissociation step the slope abruptly reverses to show fast-off of the dimer species with a signal that then leveled off in this experiment at 67% of the maximum response and represents accumulation of the stable tetramers. In runs containing A20, even though there was no effect on the early and fast formation of dimers during the 80 sec association step, there was a clear and very strong dose-dependent reduction in accumulation of the tetramer.
This can be especially seen in the analysis of the kinetic data where the parameters were set to calculate information based off of a 1:1 interaction (FIG. 25C). […] This increased rate of dissociation reflects the near absence in formation of stable tetramers and provides a fairly accurate representation of the Kdis that is specifically attributed to the fast-off melting of dimers. Summarizing these biophysical studies, in the presence of A20 only the fast-on/fast-off dimers form and are visualized in the association step, quickly reaching a homeostasis level of dimers forming and melting in equilibrium (fast-on/fast-off), and not being able to associate into tetramers. Then, when placed into the dissociation step, all the existing dimers quickly melt off leaving behind the few tetramers that were able to form. […] Based on the results, it is concluded that A20 chemicals can be classified as specific/select inhibitors of Eph-Ephrin tetramerization.

EphrinB1-EphB2 = EphrinB1-EphB2 (Homo sapiens, UniProt P29323); assay: Octet, immobilized human EphrinB1 binding to human EphB2
Description: Studies were conducted to confirm that A20 chemicals can effectively target the human Eph/Ephrin proteins. Octet system was used to first characterize the biophysical interactions of the human B class Eph and Ephrin proteins, and then was tested to assess how A20 may disrupt the interactions. Since the human and rodent proteins are highly conserved, and essentially identical, with EphB2 sharing 99.5% identity between human and mouse, with only 5 of ~1,000 amino acids different, any species-specific differences were not anticipated. Therefore, commercially available human EphrinB1-Fc (EB1), EphrinB2-Fc (EB2), and EphrinB3-Fc (EB3) ectodomain proteins were sparsely immobilized onto biosensors and then exposed to 50 nM of soluble human EphB1-His, EphB2-His, and EphB4-His ectodomains for 800 sec association and 1,000 sec dissociation steps with a total of nine different interactions analyzed. In the absence of A20 chemical, the immobilized human EphrinB proteins bound to their appropriate human EphB target proteins; with EphrinB1 only bound EphB1 and EphB2, EphrinB2 bound all three EphB1, EphB2, and EphB4, and EphrinB3 only bound EphB1 and EphB2 (FIG. 19A-19B).
Addition of compound also altered dissociation kinetics. […] This is referred to as the “unsurmountable” component of the Eph-Ephrin interaction (FIG. 21C). Additionally, AUC data was graphed for these runs (FIG. 21D). […]

Chain of EphrinB1-EphB2 (P29323 19-543 limits assumed): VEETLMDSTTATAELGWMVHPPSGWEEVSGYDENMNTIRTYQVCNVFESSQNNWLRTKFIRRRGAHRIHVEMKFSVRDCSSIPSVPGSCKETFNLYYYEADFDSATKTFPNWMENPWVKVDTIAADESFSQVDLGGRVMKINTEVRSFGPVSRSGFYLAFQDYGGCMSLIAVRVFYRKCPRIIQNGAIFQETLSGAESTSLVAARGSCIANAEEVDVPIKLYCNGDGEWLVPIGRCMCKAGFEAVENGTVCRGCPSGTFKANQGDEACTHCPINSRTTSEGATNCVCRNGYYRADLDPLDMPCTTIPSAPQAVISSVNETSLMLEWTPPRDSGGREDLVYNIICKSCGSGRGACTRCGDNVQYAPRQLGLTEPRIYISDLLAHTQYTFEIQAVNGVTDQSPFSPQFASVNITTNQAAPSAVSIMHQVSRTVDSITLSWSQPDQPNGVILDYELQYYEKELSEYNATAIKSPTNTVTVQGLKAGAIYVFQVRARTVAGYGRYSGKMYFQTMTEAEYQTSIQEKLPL

SMILES: Oc1c(Br)cc(CN2CCOCC2)c2cccnc12 [Compound 5, 7-bromo-5-(morpholinomethyl)quinolin-8-ol]
- Kd (EphB1-EphrinB2; in presence of 10 μM A20): 10.5 nM
- Kd (EphB1-EphrinB2; in presence of 100 μM A20): 46.2 nM
- increase in rate of dissociation (Kdis) (EphB1-EphrinB2; 10 μM A20): 90 fold
- lower affinity of EphB1-EB2 (EphB1-EphrinB2; 10 μM A20): 76 fold
- tetramer accumulation slope (EphB1-EphrinB2; 10 μM A20, 60° without): 16 °
- increase in rate of dissociation (Kdis) (EphB1-EphrinB2; 100 μM A20): 275 fold
- lower affinity of EphB1-EB2 (EphB1-EphrinB2; 100 μM A20): 337 fold
- tetramer accumulation slope (EphB1-EphrinB2; 100 μM A20): flat line with no slope
- inhibition at 1 µM (EphrinB1-EphB2; EB1-EphB2, A20, read-out: reduction of tetramers): ~45%
- IC (maximum) (EphrinB1-EphB2; read-out: concentration producing maximum inhibition): 1 µM
